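Method: 48-hour compound exposure of cells in 96-well plates, five concentrations, linear interpolation of endpoints. TGI is the concentration that stops growth completely.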
Assays:
Experiment in all cases: growth of human tumour cells (NCI), 48 h
MDA-MB-231 breast = tested on: MDA-MB-231 breast
HS 578T breast = tested on: HS 578T breast
KM12 colon = tested on: KM12 colon
SNB-19 CNS = tested on: SNB-19 CNS
RPMI-8226 leukemia = tested on: RPMI-8226 leukemia
MOLT-4 leukemia = tested on: MOLT-4 leukemia
A498 renal = tested on: A498 renal
TK-10 renal = tested on: TK-10 renal
NCI-H522 lung = tested on: NCI-H522 lung
ACHN renal = tested on: ACHN renal
HOP-62 NSCLC = tested on: HOP-62 NSCLC

CN(C)CCNc1ccc2c(=O)n(CCN(C)C)c(=O)n3c4ccc(O)cc4c(=O)c1c23
TGI (MDA-MB-231 breast): 0.12 µM
TGI (HS 578T breast): 0.961 µM
TGI (KM12 colon): 2.15 µM
TGI (SNB-19 CNS): 0.729 µM
TGI (RPMI-8226 leukemia): 0.417 µM
TGI (MOLT-4 leukemia): < 0.01 µM
TGI (A498 renal): 0.515 µM
TGI (TK-10 renal): 1.21 µM
TGI (NCI-H522 lung): 0.221 µM
TGI (ACHN renal): < 0.01 µM

COc1ccc2c(c1)C(=O)CC1c3cnccc3C(=O)N21 (stereo unspecified)
TGI (MDA-MB-231 breast): > 100 µM
TGI (HOP-62 NSCLC): > 100 µM
TGI (KM12 colon): > 100 µM
TGI (SNB-19 CNS): > 100 µM
TGI (RPMI-8226 leukemia): > 100 µM
TGI (MOLT-4 leukemia): > 100 µM
TGI (A498 renal): > 100 µM
TGI (TK-10 renal): > 100 µM
TGI (NCI-H522 lung): > 100 µM
TGI (ACHN renal): > 100 µM

C=CCC1(C#N)C(=S)NC2=C(C(=O)CC(C)(C)C2)C1c1ccccc1 (stereo unspecified)
TGI (MDA-MB-231 breast): > 100 µM
TGI (KM12 colon): > 100 µM
TGI (SNB-19 CNS): > 100 µM
TGI (RPMI-8226 leukemia): > 100 µM
TGI (MOLT-4 leukemia): > 100 µM

CNC(C)(C)Cc1ccc(Cl)cc1
TGI (HOP-62 NSCLC): > 100 µM
TGI (KM12 colon): > 100 µM
TGI (RPMI-8226 leukemia): > 100 µM
TGI (MOLT-4 leukemia): > 100 µM
TGI (A498 renal): > 100 µM
TGI (TK-10 renal): > 100 µM
TGI (NCI-H522 lung): > 100 µM
TGI (ACHN renal): > 100 µM

CC(=O)O[C@H]1CC(C)(C)C(=C=C/C(C)=C/C=C/C=C/C=C(C)/C=C2C=C(/C=C/[C@@]34O[C@]3(C)C[C@@H](O)CC4(C)C)C(=O)O/2)[C@](C)(O)C1
TGI (MDA-MB-231 breast): 97.4 µM
TGI (HOP-62 NSCLC): 32 µM
TGI (KM12 colon): 46.5 µM
TGI (SNB-19 CNS): > 100 µM
TGI (RPMI-8226 leukemia): 27.9 µM
TGI (MOLT-4 leukemia): 24.1 µM
TGI (A498 renal): > 100 µM
TGI (TK-10 renal): 21.3 µM
TGI (ACHN renal): 48.7 µM

O=C(Nc1ccc(N2C(=O)CSC2c2ccccc2O)cc1)c1ccc(N2C(=O)CSC2c2ccccc2O)cc1 (stereo unspecified)
TGI (MDA-MB-231 breast): > 100 µM
TGI (HOP-62 NSCLC): > 100 µM
TGI (HS 578T breast): > 100 µM
TGI (KM12 colon): > 100 µM
TGI (SNB-19 CNS): > 100 µM
TGI (RPMI-8226 leukemia): > 100 µM
TGI (MOLT-4 leukemia): > 100 µM
TGI (TK-10 renal): > 100 µM
TGI (NCI-H522 lung): > 100 µM
TGI (ACHN renal): > 100 µM

O=c1[nH]cc(NCCCl)c(=O)[nH]1
TGI (MDA-MB-231 breast): > 100 µM
TGI (HOP-62 NSCLC): > 100 µM
TGI (KM12 colon): > 100 µM
TGI (SNB-19 CNS): > 100 µM
TGI (RPMI-8226 leukemia): > 100 µM
TGI (MOLT-4 leukemia): > 100 µM
TGI (A498 renal): > 100 µM
TGI (TK-10 renal): > 100 µM
TGI (NCI-H522 lung): > 100 µM
TGI (ACHN renal): > 100 µM

Oc1cc(Cc2ccccc2)c(Cc2ccccc2)cc1O
TGI (MDA-MB-231 breast): > 10 µM
TGI (HOP-62 NSCLC): > 10 µM
TGI (HS 578T breast): > 10 µM
TGI (KM12 colon): > 10 µM
TGI (SNB-19 CNS): > 10 µM
TGI (RPMI-8226 leukemia): > 10 µM
TGI (MOLT-4 leukemia): > 10 µM
TGI (A498 renal): > 10 µM
TGI (NCI-H522 lung): > 10 µM
TGI (ACHN renal): > 10 µM

COc1ccc(N2CC(=O)N(C(=O)COc3ccc(OCC(=O)N4C(=O)CN(c5ccc(OC)cc5)C4=S)cc3)C2=S)cc1
TGI (MDA-MB-231 breast): > 100 µM
TGI (KM12 colon): > 100 µM
TGI (SNB-19 CNS): > 100 µM
TGI (RPMI-8226 leukemia): > 100 µM
TGI (MOLT-4 leukemia): > 100 µM
TGI (A498 renal): > 100 µM
TGI (TK-10 renal): > 100 µM
TGI (NCI-H522 lung): > 100 µM
TGI (ACHN renal): > 100 µM

C=CCSC1=N/C(=C\c2ccc(Cl)cc2)C(=O)N1CC=C
TGI (MDA-MB-231 breast): > 100 µM
TGI (HOP-62 NSCLC): > 100 µM
TGI (HS 578T breast): > 100 µM
TGI (KM12 colon): 97.7 µM
TGI (SNB-19 CNS): > 100 µM
TGI (RPMI-8226 leukemia): 52.9 µM
TGI (A498 renal): 52.4 µM
TGI (TK-10 renal): > 100 µM
TGI (NCI-H522 lung): 79.9 µM
TGI (ACHN renal): > 100 µM

CCN(CCCOc1ccccc1)CCN(CC)CCCOc1ccccc1
TGI (MDA-MB-231 breast): 39.7 µM
TGI (HOP-62 NSCLC): 45.5 µM
TGI (HS 578T breast): 30.4 µM
TGI (KM12 colon): 27.8 µM
TGI (SNB-19 CNS): 23.4 µM
TGI (RPMI-8226 leukemia): 10.4 µM
TGI (MOLT-4 leukemia): 16.8 µM
TGI (TK-10 renal): 27.1 µM
TGI (NCI-H522 lung): 28.9 µM
TGI (ACHN renal): 31.5 µM

— PubChem BioAssay (NCI)
